From PubChem BioAssay (NCI)
Where “and” joins values, the source holds several entries; their conditions need not be identical. Identical values can stand only once.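 Results reflect a 48-hour exposure of cells in 96-well plates to compound at five concentrations. At the GI50, growth is halved. TGI: total growth inhibition.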

Legend:
Assay in all cases: NCI-60 cell line screen, 48 h
HT29 colon = test system: HT29 colon
SW-620 colon = test system: SW-620 colon
DU-145 prostate = test system: DU-145 prostate
RPMI-8226 leukemia = test system: RPMI-8226 leukemia
OVCAR-8 ovarian = test system: OVCAR-8 ovarian
MALME-3M melanoma = test system: MALME-3M melanoma
SNB-75 CNS = test system: SNB-75 CNS
NCI-H522 lung = test system: NCI-H522 lung
ACHN renal = test system: ACHN renal
SF-268 CNS = test system: SF-268 CNS

Cc1c(Cl)c(=O)oc2cc(OC/C=C3\CCC(=O)O3)ccc12
GI50 (HT29 colon): 17.2 µM | TGI (HT29 colon): 43.3 µM | GI50 (SW-620 colon): 13.5 µM | TGI (SW-620 colon): 35.6 µM | GI50 (DU-145 prostate): 14 µM | TGI (DU-145 prostate): 29.4 µM | GI50 (RPMI-8226 leukemia): 7.63 µM | TGI (RPMI-8226 leukemia): 42.6 µM | GI50 (OVCAR-8 ovarian): 20 µM | TGI (OVCAR-8 ovarian): 47.2 µM | GI50 (MALME-3M melanoma): 12.9 µM | TGI (MALME-3M melanoma): 32.2 µM | GI50 (SNB-75 CNS): 17.9 µM | TGI (SNB-75 CNS): 37.5 µM | GI50 (NCI-H522 lung): 11 µM | TGI (NCI-H522 lung): 24.2 µM | GI50 (ACHN renal): 4.22 µM | TGI (ACHN renal): 17.9 µM | GI50 (SF-268 CNS): 18.8 µM | TGI (SF-268 CNS): 64.3 µM

CC[C@@]1(OC(=O)C(N)CCCCN)C(=O)OCc2c1cc1n(c2=O)Cc2cc3ccccc3nc2-1 (stereo not given in full)
TGI (HT29 colon): 11.4 µM | TGI (SW-620 colon): > 28.7 µM | TGI (DU-145 prostate): 0.25 µM | TGI (RPMI-8226 leukemia): 0.883 µM | TGI (OVCAR-8 ovarian): 3.1 µM | TGI (MALME-3M melanoma): 1.79 µM | TGI (SNB-75 CNS): 0.609 µM | TGI (NCI-H522 lung): 2.39 µM | TGI (ACHN renal): 0.129 µM | TGI (SF-268 CNS): 11.9 µM

CCN(CC)c1c(-c2ccccc2)n[nH]c1C(=O)OC
GI50 (HT29 colon): 19.4 µM | TGI (HT29 colon): 33.5 µM | GI50 (SW-620 colon): 26.6 µM | TGI (SW-620 colon): > 100 µM | GI50 (DU-145 prostate): 36.9 µM | TGI (DU-145 prostate): > 100 µM | GI50 (RPMI-8226 leukemia): 14.6 µM | TGI (RPMI-8226 leukemia): 38.4 µM | GI50 (OVCAR-8 ovarian): 15.5 µM | TGI (OVCAR-8 ovarian): 44.9 µM | GI50 (MALME-3M melanoma): 15.9 µM | TGI (MALME-3M melanoma): 41.5 µM | GI50 (SNB-75 CNS): 33.9 µM | TGI (SNB-75 CNS): > 100 µM | GI50 (NCI-H522 lung): 18.5 µM | TGI (NCI-H522 lung): 50.7 µM | GI50 (ACHN renal): 28.8 µM | TGI (ACHN renal): 74.3 µM | GI50 (SF-268 CNS): 22.9 µM | TGI (SF-268 CNS): 59.7 µM

CN(C)C(=O)OCc1nc2c(N3CCOCC3)nc(-c3ccccc3)nc2n1C
GI50 (HT29 colon): 0.476 µM | TGI (HT29 colon): 1.78 µM | GI50 (SW-620 colon): 0.305 µM | TGI (SW-620 colon): 0.899 µM | GI50 (DU-145 prostate): 1.05 µM | TGI (DU-145 prostate): 2.28 µM | GI50 (RPMI-8226 leukemia): 0.189 µM | TGI (RPMI-8226 leukemia): 0.675 µM | GI50 (OVCAR-8 ovarian): 1.26 µM | TGI (OVCAR-8 ovarian): 3.24 µM | GI50 (MALME-3M melanoma): 1.57 µM | TGI (MALME-3M melanoma): 2.96 µM | GI50 (SNB-75 CNS): 1.1 µM | TGI (SNB-75 CNS): 2.37 µM | GI50 (NCI-H522 lung): 0.454 µM | TGI (NCI-H522 lung): 2.02 µM | GI50 (ACHN renal): 0.415 µM | TGI (ACHN renal): 1.43 µM | GI50 (SF-268 CNS): 1.39 µM | TGI (SF-268 CNS): 2.77 µM

Cc1cc(-c2nnc(/C=C/c3ccc4c(c3)OCO4)o2)n[nH]1
GI50 (HT29 colon): 13.8 µM | TGI (HT29 colon): 43.4 µM | GI50 (SW-620 colon): 2.85 µM | TGI (SW-620 colon): 19.8 µM | GI50 (DU-145 prostate): 9.17 µM | TGI (DU-145 prostate): 29.4 µM | GI50 (RPMI-8226 leukemia): 2.99 µM | TGI (RPMI-8226 leukemia): 32 µM | GI50 (OVCAR-8 ovarian): 22.8 µM | TGI (OVCAR-8 ovarian): > 50 µM | GI50 (MALME-3M melanoma): 8.96 µM | TGI (MALME-3M melanoma): > 50 µM | GI50 (SNB-75 CNS): 9.02 µM | TGI (SNB-75 CNS): 36.2 µM | GI50 (NCI-H522 lung): 8.15 µM | TGI (NCI-H522 lung): 26.7 µM | GI50 (ACHN renal): 27.2 µM | TGI (ACHN renal): > 50 µM | GI50 (SF-268 CNS): 6.5 µM | TGI (SF-268 CNS): > 50 µM

C=CC(COC(=O)C(C)(C)OC(C)=O)c1ccc(OC(=O)C(C)C)c(OC)c1 (stereo not given)
TGI (HT29 colon): > 36.1 µM | TGI (SW-620 colon): 52.8 µM | TGI (DU-145 prostate): 25.9 µM | TGI (RPMI-8226 leukemia): > 100 µM | TGI (OVCAR-8 ovarian): > 89.3 µM | TGI (MALME-3M melanoma): 8.78 µM | TGI (SNB-75 CNS): 22.2 µM | TGI (NCI-H522 lung): 6.38 µM | TGI (ACHN renal): 8.77 µM | TGI (SF-268 CNS): > 43.9 µM

O=C1Nc2cc(-c3cccc(O)c3)ccc2/C1=C/c1ccc[nH]1
GI50 (HT29 colon): 4.71 µM | TGI (HT29 colon): 30.6 µM | GI50 (SW-620 colon): 1.17 µM | TGI (SW-620 colon): 8.27 µM | GI50 (DU-145 prostate): 3.16 µM | TGI (DU-145 prostate): 23.6 µM | GI50 (RPMI-8226 leukemia): 0.588 µM | TGI (RPMI-8226 leukemia): 5.83 µM | GI50 (OVCAR-8 ovarian): 3.45 µM | TGI (OVCAR-8 ovarian): 49.2 µM | GI50 (MALME-3M melanoma): 1.34 µM | TGI (MALME-3M melanoma): 3.71 µM | GI50 (SNB-75 CNS): 1.31 µM | TGI (SNB-75 CNS): 4.53 µM | GI50 (NCI-H522 lung): 1.6 µM | TGI (NCI-H522 lung): 14.1 µM | GI50 (ACHN renal): 0.515 µM | TGI (ACHN renal): 5.5 µM | GI50 (SF-268 CNS): 1.76 µM | TGI (SF-268 CNS): 8.04 µM

Cc1ccc(S(=O)(=O)OCC#CCOS(=O)(=O)c2ccc(C)cc2)cc1
GI50 (HT29 colon): 1.87 µM | TGI (HT29 colon): 4.17 µM | GI50 (SW-620 colon): 1.8 µM | TGI (SW-620 colon): 3.96 µM | GI50 (DU-145 prostate): 1.86 µM | TGI (DU-145 prostate): 3.76 µM | GI50 (RPMI-8226 leukemia): 1.85 µM | TGI (RPMI-8226 leukemia): 4.42 µM | GI50 (OVCAR-8 ovarian): 2.45 µM | TGI (OVCAR-8 ovarian): > 21.5 µM | GI50 (MALME-3M melanoma): 1.97 µM | TGI (MALME-3M melanoma): 4.1 µM | GI50 (SNB-75 CNS): 1.76 µM | TGI (SNB-75 CNS): 4.38 µM | GI50 (NCI-H522 lung): 1.19 µM | TGI (NCI-H522 lung): 3.12 µM | GI50 (ACHN renal): 2.27 µM | TGI (ACHN renal): 5.94 µM | GI50 (SF-268 CNS): 1.79 µM | TGI (SF-268 CNS): 3.87 µM

CS(=O)(=O)Nc1cc(-c2ccc3ncnc(Nc4ccc(F)c(Cl)c4)c3c2)cnc1Cl
GI50 (HT29 colon): 0.369 µM and 0.503 µM | TGI (HT29 colon): 6.82 µM and 7.81 µM | GI50 (SW-620 colon): 0.741 µM and 1.01 µM | TGI (SW-620 colon): 11.2 µM and 11.9 µM | GI50 (DU-145 prostate): 0.738 µM and 0.766 µM | TGI (DU-145 prostate): 11.1 µM and 13.6 µM | GI50 (RPMI-8226 leukemia): 0.444 µM and 0.598 µM | TGI (RPMI-8226 leukemia): 2.67 µM and 3.4 µM | GI50 (OVCAR-8 ovarian): 1.68 µM and 1.72 µM | TGI (OVCAR-8 ovarian): 12.9 µM and > 40.4 µM | GI50 (MALME-3M melanoma): 0.191 µM and 0.179 µM | TGI (MALME-3M melanoma): 1.13 µM and 1.56 µM | GI50 (SNB-75 CNS): 0.132 µM and 0.0697 µM | TGI (SNB-75 CNS): 1.28 µM and 0.812 µM | GI50 (NCI-H522 lung): 0.4 µM and 0.815 µM | TGI (NCI-H522 lung): 3.9 µM and 9.8 µM | GI50 (ACHN renal): 0.404 µM and 0.575 µM | TGI (ACHN renal): 13.8 µM and > 42.5 µM | GI50 (SF-268 CNS): 0.51 µM and 0.675 µM | TGI (SF-268 CNS): 8.05 µM and 20.1 µM

O=C(Nc1cccc(-n2cc(-c3ccncc3)c(-c3ccc(O)c(Cl)c3)n2)c1)c1ccc2c(c1)OCCO2
GI50 (HT29 colon): 7.03 µM | TGI (HT29 colon): > 100 µM | GI50 (SW-620 colon): > 100 µM | TGI (SW-620 colon): > 100 µM | GI50 (DU-145 prostate): > 100 µM | TGI (DU-145 prostate): > 100 µM | GI50 (RPMI-8226 leukemia): 2.19 µM | TGI (RPMI-8226 leukemia): > 100 µM | GI50 (OVCAR-8 ovarian): 3.67 µM | TGI (OVCAR-8 ovarian): > 100 µM | GI50 (MALME-3M melanoma): > 100 µM | TGI (MALME-3M melanoma): > 100 µM | GI50 (SNB-75 CNS): 4 µM | TGI (SNB-75 CNS): > 100 µM | GI50 (NCI-H522 lung): 6.25 µM | TGI (NCI-H522 lung): > 100 µM | GI50 (ACHN renal): 7.38 µM | TGI (ACHN renal): > 100 µM | GI50 (SF-268 CNS): > 100 µM | TGI (SF-268 CNS): > 100 µM

OB(O)c1ccccc1C#Cc1ccccc1B(O)O
TGI (HT29 colon): > 100 µM | TGI (SW-620 colon): > 100 µM | TGI (DU-145 prostate): 82.4 µM | TGI (RPMI-8226 leukemia): 68.8 µM | TGI (OVCAR-8 ovarian): > 100 µM | TGI (MALME-3M melanoma): 44.2 µM | TGI (SNB-75 CNS): > 100 µM | TGI (NCI-H522 lung): 41.7 µM | TGI (ACHN renal): > 100 µM | TGI (SF-268 CNS): 46.9 µM

CC1=C(/C=C/C(=O)CC(=O)/C=C/C2=C(C)CCCC2(C)C)C(C)(C)CCC1
GI50 (HT29 colon): 28.3 µM | TGI (HT29 colon): > 100 µM | GI50 (SW-620 colon): 25.7 µM | TGI (SW-620 colon): > 100 µM | GI50 (DU-145 prostate): 14.3 µM | TGI (DU-145 prostate): > 100 µM | GI50 (RPMI-8226 leukemia): 14.9 µM | TGI (RPMI-8226 leukemia): 40.8 µM | GI50 (OVCAR-8 ovarian): 30.3 µM | TGI (OVCAR-8 ovarian): > 100 µM | GI50 (MALME-3M melanoma): 38.1 µM | TGI (MALME-3M melanoma): > 100 µM | GI50 (SNB-75 CNS): 49.6 µM | TGI (SNB-75 CNS): > 100 µM | GI50 (NCI-H522 lung): 26.5 µM | TGI (NCI-H522 lung): > 100 µM | GI50 (ACHN renal): 34.3 µM | TGI (ACHN renal): > 100 µM | GI50 (SF-268 CNS): 18.2 µM | TGI (SF-268 CNS): > 100 µM
